{
  "source": "PubChem BioAssay AID1259407",
  "about": "(Chemical Carcinogenesis Research Information System (CCRIS), 2018)",
  "test_system": "CCRIS mutagenicity, Ames/micronucleus/aberration tests",
  "experiment": "CCRIS mutagenicity studies",
  "source_text": "The CCRIS database contains chemical records with carcinogenicity, mutagenicity, tumor promotion, and tumor inhibition test results. It was developed by the National Cancer Institute (NCI). Data are derived from studies cited in primary journals, current awareness tools, NCI reports, and other sources. Test results have been reviewed by experts in carcinogenesis and mutagenesis.\nCCRIS provides historical information from the years 1985 - 2011. It is no longer updated.\nThis is an archive assay for CCRIS mutagenicity studies.",
  "key": {"[1]": {"details": "Test System: AMES SALMONELLA TYPHIMURIUM, Strain/Indicator: TA98, Metabolic Activation: NONE, Method: PREINCUBATION"}, "[2]": {"details": "Test System: AMES SALMONELLA TYPHIMURIUM, Strain/Indicator: TA100, Metabolic Activation: NONE, Method: PREINCUBATION"}, "[3]": {"details": "Test System: AMES SALMONELLA TYPHIMURIUM, Strain/Indicator: TA1535, Metabolic Activation: NONE, Method: PREINCUBATION"}, "[4]": {"details": "Test System: AMES SALMONELLA TYPHIMURIUM, Strain/Indicator: TA1537, Metabolic Activation: NONE, Method: PREINCUBATION"}},
  "note": "Active and inactive are the calls of the source. The rule behind the calls is not given here.",
  "data": [
    {"smiles": "N=C(N)N", "values": [
      {"measurement": "mutagenic call", "setting": "[1]", "value": "inactive; negative"},
      {"measurement": "mutagenic call", "setting": "Test System: AMES SALMONELLA TYPHIMURIUM, Strain/Indicator: TA98, Metabolic Activation: RAT LIVER S-9, PHENOBARBITAL AND BETA-NAPHTHOFLAVONE, Method: PREINCUBATION", "value": "inactive; negative"},
      {"measurement": "mutagenic call", "setting": "[2]", "value": "inactive; negative"},
      {"measurement": "mutagenic call", "setting": "Test System: AMES SALMONELLA TYPHIMURIUM, Strain/Indicator: TA100, Metabolic Activation: RAT LIVER S-9, PHENOBARBITAL AND BETA-NAPHTHOFLAVONE, Method: PREINCUBATION", "value": "inactive; negative"},
      {"measurement": "mutagenic call", "setting": "[3]", "value": "inactive; negative"},
      {"measurement": "mutagenic call", "setting": "Test System: AMES SALMONELLA TYPHIMURIUM, Strain/Indicator: TA1535, Metabolic Activation: RAT LIVER S-9, PHENOBARBITAL AND BETA-NAPHTHOFLAVONE, Method: PREINCUBATION", "value": "inactive; negative"},
      {"measurement": "mutagenic call", "setting": "[4]", "value": "inactive; negative"},
      {"measurement": "mutagenic call", "setting": "Test System: AMES SALMONELLA TYPHIMURIUM, Strain/Indicator: TA1537, Metabolic Activation: RAT LIVER S-9, PHENOBARBITAL AND BETA-NAPHTHOFLAVONE, Method: PREINCUBATION", "value": "inactive; negative"},
      {"measurement": "mutagenic call", "setting": "Test System: AMES SALMONELLA TYPHIMURIUM, Strain/Indicator: TA1538, Metabolic Activation: NONE, Method: PREINCUBATION", "value": "inactive; negative"},
      {"measurement": "mutagenic call", "setting": "Test System: AMES SALMONELLA TYPHIMURIUM, Strain/Indicator: TA1538, Metabolic Activation: RAT LIVER S-9, PHENOBARBITAL AND BETA-NAPHTHOFLAVONE, Method: PREINCUBATION", "value": "inactive; negative"},
      {"measurement": "mutagenic call", "setting": "Test System: E.COLI, Strain/Indicator: WP2UVRA, Metabolic Activation: NONE, Method: PREINCUBATION", "value": "inactive; negative"},
      {"measurement": "mutagenic call", "setting": "Test System: E.COLI, Strain/Indicator: WP2UVRA, Metabolic Activation: RAT LIVER S-9, PHENOBARBITAL AND BETA-NAPHTHOFLAVONE, Method: PREINCUBATION", "value": "inactive; negative"}
    ]},
    {"smiles": "C(=N\\NC1=NCCN1)/c1c2ccccc2c(/C=N/NC2=NCCN2)c2ccccc12", "values": [
      {"measurement": "mutagenic call", "setting": "Test System: AMES SALMONELLA TYPHIMURIUM, Strain/Indicator: TA97A, Metabolic Activation: NONE, Method: STANDARD PLATE", "value": "active; positive"},
      {"measurement": "mutagenic call", "setting": "Test System: AMES SALMONELLA TYPHIMURIUM, Strain/Indicator: TA98, Metabolic Activation: NONE, Method: STANDARD PLATE", "value": "active; positive"},
      {"measurement": "mutagenic call", "setting": "Test System: AMES SALMONELLA TYPHIMURIUM, Strain/Indicator: TA1538, Metabolic Activation: NONE, Method: STANDARD PLATE", "value": "active; positive"}
    ]},
    {"smiles": "Cc1ccc(NC(N)=O)cc1", "values": [
      {"measurement": "mutagenic call", "setting": "Test System: AMES SALMONELLA TYPHIMURIUM, Strain/Indicator: TA98, Metabolic Activation: HAMSTER, LIVER, S-9, AROCLOR 1254 (10%), Method: PREINCUBATION", "value": "inactive; negative"},
      {"measurement": "mutagenic call", "setting": "[1]", "value": "inactive; negative"},
      {"measurement": "mutagenic call", "setting": "Test System: AMES SALMONELLA TYPHIMURIUM, Strain/Indicator: TA98, Metabolic Activation: RAT, LIVER, S-9, AROCLOR 1254 (10%), Method: PREINCUBATION", "value": "inactive; negative"},
      {"measurement": "mutagenic call", "setting": "Test System: AMES SALMONELLA TYPHIMURIUM, Strain/Indicator: TA100, Metabolic Activation: HAMSTER, LIVER, S-9, AROCLOR 1254 (10%), Method: PREINCUBATION", "value": "inactive; negative"},
      {"measurement": "mutagenic call", "setting": "[2]", "value": "inactive; negative"},
      {"measurement": "mutagenic call", "setting": "Test System: AMES SALMONELLA TYPHIMURIUM, Strain/Indicator: TA100, Metabolic Activation: RAT, LIVER, S-9, AROCLOR 1254 (10%), Method: PREINCUBATION", "value": "inactive; negative"},
      {"measurement": "mutagenic call", "setting": "Test System: AMES SALMONELLA TYPHIMURIUM, Strain/Indicator: TA1535, Metabolic Activation: HAMSTER, LIVER, S-9, AROCLOR 1254 (10%), Method: PREINCUBATION", "value": "inactive; negative"},
      {"measurement": "mutagenic call", "setting": "[3]", "value": "inactive; negative"},
      {"measurement": "mutagenic call", "setting": "Test System: AMES SALMONELLA TYPHIMURIUM, Strain/Indicator: TA1535, Metabolic Activation: RAT, LIVER, S-9, AROCLOR 1254 (10%), Method: PREINCUBATION", "value": "inactive; negative"},
      {"measurement": "mutagenic call", "setting": "Test System: AMES SALMONELLA TYPHIMURIUM, Strain/Indicator: TA1537, Metabolic Activation: HAMSTER, LIVER, S-9, AROCLOR 1254 (10%), Method: PREINCUBATION", "value": "inactive; negative"},
      {"measurement": "mutagenic call", "setting": "[4]", "value": "inactive; negative"},
      {"measurement": "mutagenic call", "setting": "Test System: AMES SALMONELLA TYPHIMURIUM, Strain/Indicator: TA1537, Metabolic Activation: RAT, LIVER, S-9, AROCLOR 1254 (10%), Method: PREINCUBATION", "value": "inactive; negative"}
    ]}
  ]
}
